Assays:
uric acid clearance = assay: Accelerated uric acid clearance in rats caused by administration of compound (I); assay type: in vivo; settings: male rats, mean of four measurements minus control value
Text: Accelerated uric acid clearance in rats caused by administration of compound (I).
Nine-week-old male rats were employed for the test. As a pre-treatment for measuring uric acid clearance and inulin clearance, each animal was anesthetized with pentobarbital sodium, and canulae were placed into the right femoral artery (for blood collection), left femoral vein (for drug infusion), and urinary bladder (for urine collection) of each animal. 60% Urethane was subcutaneously administered to each animal at a dose of 2 ml/kg body weight and then 1.7% potassium oxonate/1.5% inulin/4% mannitol/0.9% saline solution was intravenously administered. After that, 0.5% pottasium oxonate/4% mannitol/1.5% inulin/0.9% saline was infused to each animal at a flow rate of 0.05 ml per minute on a hot plate kept at 30° C. Thirty minutes later, 0.9% saline was intraperitonealy administered at 4 ml/kg body weight. After the equilibrium for another 30 minutes, arterial blood (0.2 ml each) samples were collected 6 times at every 20 minute interval and five 20-minute urine samples were collected. Immediately after the collection of every blood sample, the serum was separated therefrom, and the serum samples and the urine samples were stored in a refrigerator.
Immediately after the first collection of the urine sample, the test compound suspended in 1% gum arabic was intraperitoneally administered at 2 ml/kg body weight.
Uric acid both in the serum and in the urine was quantitatively analyzed by the method of Yonetani et al's. [Yonetani, Y.; Ishii, M.; Iwaki, K., Japanese J. Pharmacology 30, 829-840 (1980).] Inulin was also done substantially by the method of Vurek's and Pegram's [Vurek, G G., Pegram, S.E., Anal.Biochem., 16, 409-419 (1966}]. In order to analyze uric acid, 0.2 ml of diluted solution of deproteinized serum or urine was admixed with 2.5 ml of 0.4% dimedon/orthphosphoric acid solution and the resulting mixture was heated in a hot bath for 5 minutes. The mixture was then cooled in ice-cold water and the fluorescence was measured at 400 nm in the excitation wave length at 360 nm. Control experiments were carried out using an equivalent amount of positive control compounds, ([5-chloro-3-(2-methylphenyl)-4-oxo-4H-1-benzopyran-7-yl] oxy)acetic acid and benzbromarone.
a) Increment of urinary uric acid was calculated by subtracting the control value from the mean value of four measurements after the administration of test compound.
b) Increment of fractional excretion of uric acid [Uric acid clearance/inulin clearance (i.e., glomerular filtration rate)] was calculated by subtracting the control value from the mean value of four measurements after the administration of test compound.

[1] = target: T1, xanthine oxidase (milk xanthine oxidase) (Bos taurus, UniProt P80457); assay: Evaluation of xanthine oxidase inhibition activity; assay type: biochemical; settings: phosphate buffer pH=8, absorbance at 293 nm, 10 minutes, read-out: IC50 (50% inhibition rate)
T1 construct: purchased Boelinger Manheim; host or cells: milk
T1 sequence (P80457 whole entry): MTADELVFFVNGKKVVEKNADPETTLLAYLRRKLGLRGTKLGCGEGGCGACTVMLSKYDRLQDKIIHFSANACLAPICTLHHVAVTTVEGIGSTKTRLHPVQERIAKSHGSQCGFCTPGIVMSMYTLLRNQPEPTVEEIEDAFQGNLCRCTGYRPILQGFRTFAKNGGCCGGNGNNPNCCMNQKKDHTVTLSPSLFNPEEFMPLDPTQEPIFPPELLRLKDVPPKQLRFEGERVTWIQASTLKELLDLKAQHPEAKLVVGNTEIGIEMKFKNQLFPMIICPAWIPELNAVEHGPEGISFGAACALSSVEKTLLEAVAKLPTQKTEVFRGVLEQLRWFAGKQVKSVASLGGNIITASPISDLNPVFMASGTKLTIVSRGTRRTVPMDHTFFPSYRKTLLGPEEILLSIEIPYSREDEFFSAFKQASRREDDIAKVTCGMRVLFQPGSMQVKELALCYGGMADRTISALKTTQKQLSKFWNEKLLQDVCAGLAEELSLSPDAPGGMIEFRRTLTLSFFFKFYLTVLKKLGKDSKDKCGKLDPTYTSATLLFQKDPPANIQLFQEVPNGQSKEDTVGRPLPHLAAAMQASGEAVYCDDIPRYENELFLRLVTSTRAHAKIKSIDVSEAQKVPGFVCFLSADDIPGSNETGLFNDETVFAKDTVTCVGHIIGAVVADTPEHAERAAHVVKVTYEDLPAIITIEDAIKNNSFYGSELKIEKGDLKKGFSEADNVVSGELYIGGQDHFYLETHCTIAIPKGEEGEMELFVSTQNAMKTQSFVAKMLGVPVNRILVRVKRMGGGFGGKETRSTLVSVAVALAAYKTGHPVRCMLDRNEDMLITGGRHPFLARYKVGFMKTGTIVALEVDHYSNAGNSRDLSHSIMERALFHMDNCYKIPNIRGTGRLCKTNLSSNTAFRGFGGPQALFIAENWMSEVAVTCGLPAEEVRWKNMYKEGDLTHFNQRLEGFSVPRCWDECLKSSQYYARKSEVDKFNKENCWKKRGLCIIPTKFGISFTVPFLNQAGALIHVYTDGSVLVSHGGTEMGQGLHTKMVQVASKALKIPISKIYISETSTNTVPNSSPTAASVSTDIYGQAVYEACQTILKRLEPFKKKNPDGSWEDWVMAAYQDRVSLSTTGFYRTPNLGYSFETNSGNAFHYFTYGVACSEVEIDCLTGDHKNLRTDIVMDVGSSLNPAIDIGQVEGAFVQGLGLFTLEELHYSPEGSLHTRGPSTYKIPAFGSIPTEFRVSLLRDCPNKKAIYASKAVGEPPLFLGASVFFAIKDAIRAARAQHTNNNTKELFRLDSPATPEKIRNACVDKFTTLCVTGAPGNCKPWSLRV
Method: A mixture of 0.05M phosphate buffer (pH=8, 2 ml), 5.0×10^-4 M xanthine solution (0.5 ml), and an aqueous solution of a test compound (0.3 ml) was charged in a cell for the spectrophotometer. An aqueous solution of xanthine oxidase (200 times dilution, Boelinger Manheim, milk xanthine oxidase) (0.2 ml) was added to the mixture. The absorbance at 293 nm was measured before, and 10 minutes after, the addition of xanthine. The increase in the two measurements is attributable to the amount of synthesized uric acid. Control experiment was carried out using water instead of the test compound solution.

SMILES | ΔUuaV (increment of urinary uric acid) (uric acid clearance; dose 10 mg/kg intraperitoneal) [mg/kg-min] | also measured
COc1cc(OCC(=O)O)cc2c1C1(CC3(CCCCC3)O2)SCCS1 [Example 54, {(5-Methoxy-3,4-dihydrodispiro[2H-1-benzopyran-2,1'-cyclohexan-4,2"-[1,3]dithiolan]-7-yl)oxy}acetic acid] | 0.039 | 
COc1cc(OCC(=O)OCn2ncc3c(=O)[nH]cnc32)cc2c1C(=O)CC1(CCCCC1)O2 [Example 61] |  | ΔUuaV (increment of urinary uric acid) (uric acid clearance; dose 25 mg/kg intraperitoneal): -0.006 mg/kg-min
COc1cc(OCC(=O)O)cc2c1C(=O)CC1(CCCCC1)O2 [Example 21, {(5-Methoxy-3,4-dihydro-4-oxospiro[2H-1-benzopyran-2,1'-cyclohexan]-7-yl)oxy}acetic acid] | 0.046 | IC50 [1]: 65 µM
CC(C)Oc1cc(OCC(=O)O)cc2c1C(=O)CC1(CCCCC1)O2 [Example 24] | 0.024 | 
O=C(O)COc1cc(Cl)c2c(c1Cl)OC1(CCCCC1)CC2=O [Example 11] | 0.022 | 
C=CCOc1cc(OCC(=O)O)cc2c1C(=O)CC1(CCCCC1)O2 [Example 25] | 0.043 | 
COc1c(OCC(=O)O)ccc2c1OC1(CCCCC1)CC2=O [Example 34] | 0.040 | 
COc1cc(OCC(=O)O)cc2c1C(=O)C(C)C1(CCCCC1)O2 (stereo not shown) [Example 30] | 0.036 | 
CCOc1cc(OCC(=O)O)cc2c1C(=O)CC1(CCCCC1)O2 [Example 22] | 0.029 | 
COc1cc(OCC(=O)O)cc2c1C(=O)CC(C)(C)O2 [Example 33] |  | ΔUuaV (increment of urinary uric acid) (uric acid clearance; dose 50 mg/kg intraperitoneal): 0.047 mg/kg-min
O=C(O)COc1cc(OCc2ccccc2)c2c(c1)OC1(CCCCC1)CC2=O [Example 23] | 0.051 | 
O=C(O)COc1cc(O)c2c(c1)SC1(CCCCC1)CC2=O [Example 49, 2-{(5-Hydroxy-3,4-dihydro-4-oxospiro[2H-1-benzothiine-2,1'-cyclohexan]-7-yl)oxy}acetic acid] | 0.082 | 
